Where two headings read alike, the source gives them in different places. Marks after values point to notes of the source that are not given here.
Columns and labels:
[1] = target: T1, human 5HT1A receptor (Homo sapiens, UniProt P08908); test: Radioligand binding at 5-HT1A receptor; details: read-out: h5HT1A Ki
T1 construct: expressed in transfected cells; host or cells: COS-7 cells, transient, vector pCEXV-3
Description: 5-HT1r Receptor: The cDNA corresponding to the 5-HT1A receptor open reading frames and variable non-coding 5′- and 3′-regions, was cloned into the eukaryotic expression vector pCEXV-3. These constructs were transfected transiently into COS-7 cells by the DEAE-dextran method (Cullen, 1987), and harvested after 72 hours. Radioligand binding assays were performed as described above for the 5-HT2A receptor, except that ^3H-8-OH-DPAT was used as the radioligand and nonspecific binding was determined by the addition of 10 μM mianserin.
(§1) Binding data were analyzed using nonlinear regression and statistical techniques available in the GraphPAD Prism package (San Diego, Calif.). Enzymatic assay data were derived from a standard curve of reference compound data.

[2] = system: Male Sprague-Dawley rats; test: Rat Forced Swim Test (FST); format: in vivo; details: for overall profile in the Forced Swim Test (conclusion in words): rat, in vivo
[3] = target: T2, human GAL3 receptor (Homo sapiens, UniProt O60755); test: Radioligand binding at cloned human GAL3 receptor; details: for Ki: read-out: hGAL3 Ki
T2 construct: expressed in transfected cells
T2 sequence (O60755 1-368): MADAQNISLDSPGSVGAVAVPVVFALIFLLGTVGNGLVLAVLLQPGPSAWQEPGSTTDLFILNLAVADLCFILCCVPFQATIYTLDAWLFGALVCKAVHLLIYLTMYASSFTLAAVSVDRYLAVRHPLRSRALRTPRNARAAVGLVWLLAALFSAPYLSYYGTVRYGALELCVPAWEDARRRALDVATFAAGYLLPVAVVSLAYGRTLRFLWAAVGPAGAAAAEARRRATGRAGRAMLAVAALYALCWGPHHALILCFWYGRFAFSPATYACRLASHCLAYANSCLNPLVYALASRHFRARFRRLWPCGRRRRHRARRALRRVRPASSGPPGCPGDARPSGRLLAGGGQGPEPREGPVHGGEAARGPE
Description: The present invention provides for a method of determining the binding affinity of a GAL3 antagonist, wherein the GAL3 antagonist is dissolved in a “suitable solvent”. A “suitable solvent” means one which permits the measurement of binding affinity of the GAL3 antagonist to the human GAL3 receptor at concentrations less than 1 μM, preferably less than 100 nM. Examples of solvents include, but are not limited to, DMSO, ethanol, N,N-dimethylacetamide, or water. For indolones, the preferred solvent is 3% DMSO (final concentration in the assay). For pyrimidines, the preferred solvent is 1% ethanol/0.09% polypuronic acid F-127 (final concentration in the assay). For any other type of compounds, the preferred solvent is the solvent which permits the measurement of binding affinity of a GAL3 antagonist at the lowest concentration. Once a suitable solvent is ascertained for the binding assay of the human GAL3 receptor, the same solvent is used in assays to determine the binding affinity for instance, at the GAL1 receptor.
The binding properties of the pyrimidines of the present invention were evaluated at the cloned human galanin receptors, GAL1, GAL2, and GAL3, using protocols described herein.
The binding properties of the indolones of the present invention were evaluated at the cloned human galanin receptors, GAL1, GAL2, and GAL3, using protocols described herein.
LM(tk-) cells were stably transfected with the human GAL1 or GAL3 receptor. CHO cells were stably transfected with the human GAL2 receptor.
cDNAs for the human and rat GAL1, and human and rat GAL3 receptors were transfected with a G-418 resistant gene into the mouse fibroblast LM(tk-) cell line by a calcium phosphate transfection method (Cullen, 1967). Stably transfected cells were selected with G-418. Human and rat GAL2 receptors were similarly transfected into CHO cells.
Membranes were harvested from stably transfected LM(tk-) cells. Adherent cells were washed twice in ice-cold phosphate buffered saline (138 mM NaCl, 8.1 mM Na2HPO4, 2.5 mM KCl, 1.2 mM KH2PO4, 0.9 mM CaCl2, 0.5 mM MgCl2, pH 7.4) and lysed by sonication in ice-cold sonication buffer (20 mM Tris-HCl, 5 mM EDTA, pH 7.7). Large particles and debris were cleared by low speed centrifugation (200×g, 5 min, 4° C.). Membranes were collected from the supernatant fraction by centrifugation (32,000×g, 18 min, 4° C.), washed with ice-cold hypotonic buffer, and collected again by centrifugation (32,000×g, 18 min, 4° C.). The final membrane pellet was resuspended by sonication into a small volume of ice-cold binding buffer (−1 ml for every 5 plates: 10 mM NaCl, 20 mM HEPES, 0.22 mM KH2PO4, 1.26 mM CaCl2, 0.81 mM MgSO4, pH 7.4). Protein concentration was measured by the Bradford method (Bradford, 1976) using Bio-Rad Reagent, with bovine serum albumin as a standard. Membranes were held on ice for up to one hour and used fresh, or flash frozen and stored in liquid nitrogen. Membranes were prepared similarly from CHO cells.
Galanin Receptors: Binding assays were performed according to the following published methods: human GAL3 (PCT International Publication No. WO 98/15570), human GAL1 (PCT International Publication No. WO 95/2260) human GAL2 (PCT International Publication No. WO 97/26853).
as §1

[4] = target: T3, human 5HT6 receptor (Homo sapiens, UniProt P50406); test: Radioligand binding at 5-HT6 receptor; details: read-out: h5HT6 Ki
T3 construct: expressed in transfected cells
Description: Other 5-HT ReceDtors: Other serotonin receptor binding assays were performed according to published methods: rat 5HT2c receptor (Julius et al., 1988); and 5-HT6 (Monsma, et al., 1993). The binding assays using the 5-HT4 receptor were performed according to the procedures described in U.S. Pat. No. 5,766,879, the disclosure of which is hereby incorporated by reference in its entirety into this application.
as §1

[5] = 0.3 mg/kg p.o., single administration 1 hr before 5 min test
[6] = 0.3 mg/kg p.o., single administration 1 hr before 5 min test, listed as EX34
[7] = 1 mg/kg p.o., single administration 1 hr before 5 min test
[8] = 1 mg/kg p.o., single administration 1 hr before 5 min test, listed as EX34
[9] = 3 mg/kg p.o., single administration 1 hr before 5 min test
[10] = 3 mg/kg p.o., single administration 1 hr before 5 min test, listed as EX34
[11] = 10 mg/kg p.o., single administration 1 hr before 5 min test
[12] = 10 mg/kg p.o., single administration 1 hr before 5 min test, listed as EX34
[13] = 1 mg/kg i.p., single injection 1 h before 5 min test
[14] = 3 mg/kg i.p., single injection 1 h before 5 min test
[15] = 10 mg/kg i.p., single injection 1 h before 5 min test

T1 sequence (P08908 whole entry): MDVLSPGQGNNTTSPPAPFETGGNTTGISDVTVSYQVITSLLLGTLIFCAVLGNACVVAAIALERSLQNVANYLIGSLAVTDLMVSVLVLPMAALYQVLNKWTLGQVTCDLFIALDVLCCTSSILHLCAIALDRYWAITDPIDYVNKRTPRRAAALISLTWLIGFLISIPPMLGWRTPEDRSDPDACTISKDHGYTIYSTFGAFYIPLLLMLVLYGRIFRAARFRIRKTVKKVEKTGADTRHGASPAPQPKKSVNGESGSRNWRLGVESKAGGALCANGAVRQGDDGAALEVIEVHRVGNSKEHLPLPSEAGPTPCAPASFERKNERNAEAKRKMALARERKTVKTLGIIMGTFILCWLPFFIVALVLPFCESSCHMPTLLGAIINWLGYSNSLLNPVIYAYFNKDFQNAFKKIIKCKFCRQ
T3 sequence (P50406 whole entry): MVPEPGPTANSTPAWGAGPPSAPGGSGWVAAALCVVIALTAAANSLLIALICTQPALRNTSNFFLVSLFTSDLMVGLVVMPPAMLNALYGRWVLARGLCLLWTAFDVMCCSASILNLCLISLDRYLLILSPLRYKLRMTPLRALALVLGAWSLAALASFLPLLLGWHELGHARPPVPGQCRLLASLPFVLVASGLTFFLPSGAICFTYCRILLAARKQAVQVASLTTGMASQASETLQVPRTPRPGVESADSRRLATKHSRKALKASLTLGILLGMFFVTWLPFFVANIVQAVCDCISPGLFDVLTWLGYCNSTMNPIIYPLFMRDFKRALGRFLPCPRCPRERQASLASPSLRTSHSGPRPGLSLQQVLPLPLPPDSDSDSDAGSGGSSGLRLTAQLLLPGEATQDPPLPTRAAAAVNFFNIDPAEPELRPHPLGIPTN

Cc1ccc(Nc2cc(N3CCCCC3)nc(N3CCN(c4ncccc4C(F)(F)F)CC3)n2)cc1 [Example 34]
Ki [1]: > 50000 nM | Climbing [2, 5]: 3.3 ± 0.7 counts | Diving [2, 5]: not significantly altered | Immobility [2, 5]: significantly decreased immobility | Swimming [2, 5]: significant increase in swimming behavior | Diving [2, 6]: 0.2 ± 0.1 counts | Immobility [2, 6]: 45 ± 1.5^a counts | Swimming [2, 6]: 11.6 ± 0.9^d counts | Climbing [2, 7]: significant increase in climbing | Diving [2, 7]: not significantly altered | Immobility [2, 7]: significantly decreased immobility | Swimming [2, 7]: significant increase in swimming behavior | Climbing [2, 8]: 5.0 ± 0.8^c counts | Diving [2, 8]: 0.3 ± 0.2 counts | Immobility [2, 8]: 35 ± 1.9^b counts | Swimming [2, 8]: 19.6 ± 1.3^d,e counts | Climbing [2, 9]: 4.3 ± 0.8 counts | Diving [2, 9]: not significantly altered | Immobility [2, 9]: significantly decreased immobility | Swimming [2, 9]: significant increase in swimming behavior | Diving [2, 10]: 0.3 ± 0.3 counts | Immobility [2, 10]: 35 ± 2.0^b counts | Swimming [2, 10]: 20.8 ± 1.3^d,e counts | Climbing [2, 11]: did not significantly alter swimming or climbing | Diving [2, 11]: not significantly altered | Immobility [2, 11]: did not significantly decrease in immobility | Swimming [2, 11]: did not significantly alter swimming or climbing | Climbing [2, 12]: 2.0 ± 0.4 counts | Diving [2, 12]: 0.4 ± 0.3 counts | Immobility [2, 12]: 49 ± 1.4 counts | Swimming [2, 12]: 8.2 ± 1.2 counts | overall profile in the Forced Swim Test (conclusion in words) [2]: produces an effect in the FST that resembles that of antidepressants | GAL3/GAL1 binding ratio (Ki GAL1 divided by Ki GAL3) [3]: 39

O=C1C(=Nc2cccc(C(F)(F)F)c2)c2ccccc2N1c1ccccc1 [Example 92, 1-PHENYL-3-[[3-(TRIFLUOROMETHYL)PHENYL]IMINO]-1,3-DIHYDRO-2H-INDOL-2-ONE]
Ki [1]: > 50000 nM | Diving [2, 13]: 0.6±0.2 counts | Immobility [2, 13]: 28 ± 1.0 counts | Swimming [2, 13]: 20±1.1 counts | Diving [2, 14]: 0.6±0.3 counts | Swimming [2, 14]: 21±0.9 counts | Diving [2, 15]: 0.5±0.5 counts | Swimming [2, 15]: 18±0.9 counts | Diving ([2]; 30 mg/kg i.p., single injection 1 h before 5 min test): 0.2±0.2 counts | overall profile in the Forced Swim Test (conclusion in words) [2]: has antidepressant-like properties | Ki [4]: > 50000 nM | Ki ([3]; Table 7): 38 nM | Ki ([3]; Table 9): 38 nM
